Laboratory results published in PubChem BioAssay (NCI).
“And” between values parts separate entries of the source, which are not always exact repeats. Identical values can stand only once.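 Test compounds were applied to cells in 96-well plates for 48 hours at 5 doses. GI50: concentration for 50% inhibition of growth. TGI marks complete inhibition of growth.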

Experiments:
Test in all cases: NCI tumour cell line growth inhibition, 48 h
[1] = tested on: HOP-62 NSCLC
[2] = tested on: M14 melanoma
[3] = tested on: A498 renal
[4] = tested on: OVCAR-3 ovarian
[5] = tested on: RPMI-8226 leukemia
[6] = tested on: NCI-H460 lung
[7] = tested on: HCT-15 colon
[8] = tested on: MALME-3M melanoma
[9] = tested on: NCI-H23 lung
[10] = tested on: NCI-H522 lung
[11] = tested on: IGROV1 ovarian
[12] = tested on: MCF7 breast
[13] = tested on: SK-MEL-5 melanoma
[14] = tested on: UACC-62 melanoma
[15] = tested on: U251 CNS
[16] = tested on: RXF 393 renal
[17] = tested on: SN12C renal
[18] = tested on: HT29 colon
[19] = tested on: MDA-MB-231 breast
[20] = tested on: K-562 leukemia
[21] = tested on: SNB-75 CNS
[22] = tested on: CCRF-CEM leukemia
[23] = tested on: SNB-19 CNS
[24] = tested on: MDA-MB-435
[25] = tested on: T-47D breast
[26] = tested on: HCC-2998 colon
[27] = tested on: 786-0 renal
[28] = tested on: HS 578T breast
[29] = tested on: BT-549 breast
[30] = tested on: DU-145 prostate

CC1(C)[C@H](O)[C@H](F)C[C@@]2(C)Oc3ccc(C(=O)Nc4ccc5c(c4)NC(=O)C54CCN(CCCCC#N)CC4)cc3C[C@H]12
TGI [1]: 5610 nM
GI50 [2]: 606 nM and 1060 nM
TGI [2]: 4970 nM and 3790 nM
GI50 [3]: 34.1 nM
TGI [3]: 548 nM
GI50 [4]: 3820 nM and 12000 nM
TGI [4]: 30400 nM
GI50 [5]: 2.62 nM
GI50 [6]: 65.3 nM
TGI [6]: 10900 nM
GI50 [7]: 5430 nM and 1590 nM
TGI [7]: 19100 nM
GI50 [8]: 332 nM and 1040 nM
TGI [8]: 3100 nM and 3430 nM
GI50 [9]: 2440 nM and 2290 nM
TGI [9]: 17800 nM
GI50 [10]: 1770 nM and 1020 nM
TGI [10]: 7860 nM and 2520 nM
GI50 [11]: 2050 nM and 3630 nM
TGI [11]: 34400 nM
GI50 [12]: 9.95 nM
TGI [12]: 9630 nM and 8280 nM
TGI [13]: 2900 nM and 1550 nM
GI50 [14]: 30.8 nM
TGI [14]: 1130 nM and 1120 nM
GI50 [15]: 4.14 nM
TGI [15]: 2020 nM
GI50 [16]: 2.79 nM
GI50 [17]: 11700 nM
TGI [17]: 42400 nM
GI50 [18]: 1800 nM and 1690 nM
TGI [18]: 6730 nM
GI50 [19]: 842 nM and 537 nM
TGI [19]: 8560 nM
GI50 [20]: 57.3 nM and 12 nM
TGI [20]: 4810 nM and 1480 nM
GI50 [21]: 6.79 nM
TGI [21]: 6380 nM and 2200 nM
GI50 [22]: 9.49 nM
TGI [22]: 5980 nM and 6980 nM
GI50 [23]: 412 nM and 1070 nM
TGI [23]: 6810 nM
GI50 [24]: 90 nM and 94.6 nM
TGI [24]: 1830 nM and 2940 nM
GI50 [25]: 3760 nM and 2490 nM
TGI [25]: 26100 nM
GI50 [26]: 6760 nM and 2710 nM
TGI [26]: 15000 nM
GI50 [27]: 26.7 nM
TGI [27]: 1800 nM and 4760 nM
GI50 [28]: 2.65 nM
TGI [28]: 35 nM and 35.2 nM
GI50 [29]: 18.6 nM
TGI [29]: 6310 nM and 8370 nM
TGI [30]: 17300 nM
